# Where two headings read alike, the source gives them in different places.
# How the values were obtained:
# solid malignancies = conditions: cited from earlier work; for recommended dose for phase II studies: 1-h i.v. infusion every 3 weeks; for maximum tolerable dose: i.v. infusion every 3 weeks
# advanced lung cancer = conditions: weekly rapid iv injection, previously treated patients with advanced lung cancer; cited from earlier work
# [1] = Adverse events in subjects receiving brequinar intravenously once a week; conditions: Infection
# [2] = in vivo
# RNA virus = experiment: Daily brequinar x 5 days in a subject infected with an RNA virus; format: in vivo; conditions: at first peak in brequinar level, once per day for five days
# Procedure: The mechanism by which administration of a DHODH inhibitor according to a daily dosing regimen inhibits viral replication is illustrated below. […] Throughout the course of the dosing regimen, levels of intracellular pyrimidines, such as uridine, and viral replication are measured.
# [3] = test system: acute myeloid leukemia (AML); experiment: Effect of brequinar-containing composition on patient with AML; format: in vivo, human
# DHODH = DHODH (Homo sapiens, UniProt Q02127)
# Sequence of DHODH (Q02127 whole entry): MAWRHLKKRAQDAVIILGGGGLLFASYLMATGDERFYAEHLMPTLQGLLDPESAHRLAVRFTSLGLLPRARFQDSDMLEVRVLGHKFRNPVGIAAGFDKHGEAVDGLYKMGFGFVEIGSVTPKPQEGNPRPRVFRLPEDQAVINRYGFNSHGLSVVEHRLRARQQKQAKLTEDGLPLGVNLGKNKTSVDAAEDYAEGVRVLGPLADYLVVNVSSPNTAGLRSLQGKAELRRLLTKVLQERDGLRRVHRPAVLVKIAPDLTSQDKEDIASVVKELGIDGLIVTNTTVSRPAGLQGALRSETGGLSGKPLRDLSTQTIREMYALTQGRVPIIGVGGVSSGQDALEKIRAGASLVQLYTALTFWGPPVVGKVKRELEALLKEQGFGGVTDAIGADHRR
# [4] = in vivo; remark: listed apart in the source
# SARS-CoV-2 = format: cell-based
# Vero E6 cells = conditions: remdesivir co-treated with brequinar
smiles,measurement,setting,value
Cc1c(-c2ccc(-c3ccccc3F)cc2)nc2ccc(F)cc2c1C(=O)O [Brequinar sodium],recommended dose for phase II studies,solid malignancies; good-risk patients,"1,800 mg/m^2"
same,maximum tolerable dose,solid malignancies; good-risk patients,"2,250 mg/m^2"
same,tumor response,solid malignancies; patient with papillary carcinoma of the thyroid,One mixed response
same,recommended dose for phase II studies,solid malignancies; poor-risk patients,"1,200 mg/m^2"
same,maximum tolerable dose,solid malignancies; poor-risk patients,"1,500 mg/m^2"
"NC(=O)c1[nH]nc([C@@H]2O[C@H](CO)[C@@H](O)[C@H]2O)c1O [PYR, 5-[(2S,3R,4S,5R)-3,4-dihydroxy-5-(hydroxymethyl)oxolan-2-yl]-4-hydroxy-1H-pyrazole-3-carboxamide]",therapeutic value,advanced lung cancer,has little therapeutic value as a single agent
"Cc1c(-c2ccc(-c3ccccc3F)cc2)nc2ccc(F)cc2c1C(=O)O [brequinar, 6-fluoro-2-(2′-fluoro-1,1′ biphenyl-4-yl)-3-methyl-4-quinoline carboxylic acid]",No. of Patients,[1],7
same,"No. of Patients Experiencing the AE, 5 y Max Grade 1",[1],4
same,"No. of Patients Experiencing the AE, 5 y Max Grade 2",[1],3
same,"No. of Patients Experiencing the AE, 5 y Max Grade 3",[1],0
same,"No. of Patients Experiencing the AE, 5 y Max Grade 4",[1],0
same,Percent,[1],3.3%
same,effect of repeated doses,[2],No cumulative effective of repeated doses
same,intracellular pyrimidine pool,RNA virus,dramatic decrease in the intracellular pyrimidine pool
same,viral replication,RNA virus,dramatic reduction in viral replication
same,response,[3]; first patient with AML (Example 12),"positive response as indicated by reduction in bone marrow blast count, improvement of extramedullary hematopoiesis, and shift to more differentiation in peripheral blasts"
same,response,[3]; patient with AML of Example 14,positive response as indicated by a trend towards differentiation of their peripheral blasts
same,response,[3]; second patient with AML (Example 13),"positive response to the disease with a lowering of peripheral blasts and increase in absolute neutrophil count, along with greater differentiation of peripheral blasts"
same,concentrations at which DHODH is almost completely inhibited,DHODH,> 1 µM
same,oral versus IV formulations,[4],oral and IV formulations are equivalent
CCC(CC)COC(=O)[C@H](C)N[P@](=O)(OC[C@H]1O[C@@](C#N)(c2ccc3c(N)ncnn23)[C@H](O)[C@@H]1O)Oc1ccccc1 [remdesivir],Min Data,SARS-CoV-2; brequinar 0.000 μM,−11%
same,Min Data,SARS-CoV-2; brequinar 0.078 μM,−1.9%
same,cytotoxicity of co-treatment,Vero E6 cells,No enhanced cytotoxicity
